Test [1] concerns the target Nitric oxide synthase 1 (Rattus norvegicus, UniProt P29476). Nature of the test: Inhibition of wild type rat nNOS by hemoglobin capture assay.
For a further test, the species on record is Rattus norvegicus. Nature of the test: Selectivity ratio of IC50 for wild type rat nNOS to IC50 for rat nNOS L337H mutant by hemoglobin capture assay.
The target of test [2] is T1, Nitric oxide synthase 1 (Homo sapiens, UniProt P29475). The test can be described thus: Inhibition of human nNOS by hemoglobin capture assay.
The nature of test [3]: Selectivity ratio of IC50 for wild type rat nNOS to IC50 for human nNOS by hemoglobin capture assay.
The target of test [4] is Nitric oxide synthase 1 (Rattus norvegicus, UniProt P29476, L337H).
Test [5] concerns the target T1, Nitric oxide synthase 1. Nature of the test: Inhibition of human nNOS by radioactivity assay.

The values below come from ChEMBL document CHEMBL1137784, “L337H mutant of rat neuronal nitric oxide synthase resembles human neuronal nitric oxide synthase toward inhibitors” (J Med Chem, 2009).

What is called IC50 is the concentration that gives 50% inhibition.

Sequence of Nitric oxide synthase 1 (Rattus norvegicus, UniProt P29476) (P29476 whole entry): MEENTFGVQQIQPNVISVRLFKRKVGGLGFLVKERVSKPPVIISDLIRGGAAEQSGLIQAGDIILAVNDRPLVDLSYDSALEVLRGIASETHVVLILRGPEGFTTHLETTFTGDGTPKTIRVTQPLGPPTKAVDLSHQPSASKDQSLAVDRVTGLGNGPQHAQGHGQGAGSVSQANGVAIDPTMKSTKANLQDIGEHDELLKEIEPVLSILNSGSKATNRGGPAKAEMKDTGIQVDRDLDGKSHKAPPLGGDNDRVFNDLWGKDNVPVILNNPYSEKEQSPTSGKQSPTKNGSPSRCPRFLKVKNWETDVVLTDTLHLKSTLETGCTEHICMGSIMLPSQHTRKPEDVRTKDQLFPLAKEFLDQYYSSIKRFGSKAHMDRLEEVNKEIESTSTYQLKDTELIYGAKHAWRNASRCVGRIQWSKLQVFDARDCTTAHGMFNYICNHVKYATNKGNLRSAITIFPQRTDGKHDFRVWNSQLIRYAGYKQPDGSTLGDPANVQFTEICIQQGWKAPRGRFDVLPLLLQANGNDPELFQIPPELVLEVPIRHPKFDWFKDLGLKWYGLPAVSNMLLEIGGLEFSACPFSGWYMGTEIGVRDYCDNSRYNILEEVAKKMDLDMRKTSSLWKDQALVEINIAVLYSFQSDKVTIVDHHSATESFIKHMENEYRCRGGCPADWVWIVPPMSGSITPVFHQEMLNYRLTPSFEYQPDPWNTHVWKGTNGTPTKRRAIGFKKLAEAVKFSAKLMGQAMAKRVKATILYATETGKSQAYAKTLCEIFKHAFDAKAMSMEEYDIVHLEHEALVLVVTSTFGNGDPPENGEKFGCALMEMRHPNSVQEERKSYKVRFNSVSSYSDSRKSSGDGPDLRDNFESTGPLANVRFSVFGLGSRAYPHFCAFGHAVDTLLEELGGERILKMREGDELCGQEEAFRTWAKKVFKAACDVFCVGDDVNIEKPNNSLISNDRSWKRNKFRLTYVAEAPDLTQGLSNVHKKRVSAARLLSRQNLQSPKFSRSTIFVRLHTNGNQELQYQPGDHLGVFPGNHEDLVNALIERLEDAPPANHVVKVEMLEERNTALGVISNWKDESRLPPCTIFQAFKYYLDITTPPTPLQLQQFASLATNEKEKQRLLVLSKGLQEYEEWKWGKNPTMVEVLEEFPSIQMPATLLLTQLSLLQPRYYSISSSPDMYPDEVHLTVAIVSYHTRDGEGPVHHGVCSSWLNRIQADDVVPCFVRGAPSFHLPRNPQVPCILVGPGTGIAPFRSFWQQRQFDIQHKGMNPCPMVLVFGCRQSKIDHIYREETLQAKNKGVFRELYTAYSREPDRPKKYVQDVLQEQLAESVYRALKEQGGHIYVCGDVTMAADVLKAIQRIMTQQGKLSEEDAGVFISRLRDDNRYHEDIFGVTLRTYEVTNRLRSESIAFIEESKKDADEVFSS
T1 sequence (P29475 whole entry): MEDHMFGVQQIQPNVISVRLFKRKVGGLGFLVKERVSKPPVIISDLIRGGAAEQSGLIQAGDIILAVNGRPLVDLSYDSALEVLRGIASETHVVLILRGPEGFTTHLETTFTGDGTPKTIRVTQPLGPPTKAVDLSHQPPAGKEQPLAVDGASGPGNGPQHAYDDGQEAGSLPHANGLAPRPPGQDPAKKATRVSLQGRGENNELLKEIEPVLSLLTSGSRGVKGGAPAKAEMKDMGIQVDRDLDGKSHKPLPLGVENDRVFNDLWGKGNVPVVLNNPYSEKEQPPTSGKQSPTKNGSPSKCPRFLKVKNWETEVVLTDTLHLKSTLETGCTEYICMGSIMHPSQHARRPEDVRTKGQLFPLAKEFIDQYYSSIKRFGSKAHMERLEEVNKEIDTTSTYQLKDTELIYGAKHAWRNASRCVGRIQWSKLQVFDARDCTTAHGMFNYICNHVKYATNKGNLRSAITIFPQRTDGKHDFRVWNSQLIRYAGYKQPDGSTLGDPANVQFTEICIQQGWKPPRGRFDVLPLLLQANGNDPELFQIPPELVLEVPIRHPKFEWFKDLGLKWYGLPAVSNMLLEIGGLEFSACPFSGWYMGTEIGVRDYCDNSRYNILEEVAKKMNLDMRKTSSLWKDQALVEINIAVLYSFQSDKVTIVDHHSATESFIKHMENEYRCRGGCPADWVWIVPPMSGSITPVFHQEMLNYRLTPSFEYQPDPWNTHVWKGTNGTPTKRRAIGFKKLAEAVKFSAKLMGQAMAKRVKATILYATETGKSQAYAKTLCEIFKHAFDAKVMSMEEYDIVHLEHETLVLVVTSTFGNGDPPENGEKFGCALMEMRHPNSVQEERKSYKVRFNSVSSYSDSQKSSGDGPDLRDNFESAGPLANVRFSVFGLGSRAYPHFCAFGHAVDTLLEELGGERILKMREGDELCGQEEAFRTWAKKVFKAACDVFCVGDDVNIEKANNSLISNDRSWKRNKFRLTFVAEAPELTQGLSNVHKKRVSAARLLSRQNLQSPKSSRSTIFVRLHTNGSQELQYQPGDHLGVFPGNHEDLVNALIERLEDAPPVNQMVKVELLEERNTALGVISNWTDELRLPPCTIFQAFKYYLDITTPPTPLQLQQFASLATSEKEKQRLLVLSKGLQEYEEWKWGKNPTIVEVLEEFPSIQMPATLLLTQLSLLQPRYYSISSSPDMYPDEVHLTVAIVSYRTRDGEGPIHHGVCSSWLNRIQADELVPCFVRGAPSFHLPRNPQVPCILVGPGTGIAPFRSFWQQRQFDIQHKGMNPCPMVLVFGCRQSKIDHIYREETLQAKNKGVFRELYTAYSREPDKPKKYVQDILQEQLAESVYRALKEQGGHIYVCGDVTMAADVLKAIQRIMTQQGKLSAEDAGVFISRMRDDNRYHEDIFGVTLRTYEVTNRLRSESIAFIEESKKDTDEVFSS
Sequence of Nitric oxide synthase 1 (Rattus norvegicus, UniProt P29476, L337H) (P29476 whole entry L337H): as the sequence (P29476 whole entry) above, with L337H counted along it

`Cc1cc(N)nc(CC2CNCC2NC(=O)CNCCc2cccc(F)c2)c1` (racemic): the 50% inhibitory concentration (IC50) on Nitric oxide synthase 1 [1] was found to be 0.7 µM; against Nitric oxide synthase 1 [2] it was 3 µM; against Nitric oxide synthase 1 [4], 4 µM. The Ratio IC50 worked out at 5.7 in the test listed under Rattus norvegicus and 4.3 in test [3].

Take `Cc1cc(C)nc(N)c1`: the IC50 against Nitric oxide synthase 1 [1], on Nitric oxide synthase 1 [2] and against Nitric oxide synthase 1 [4] was 0.1 µM throughout. Further, the figures for the Ratio IC50 (in the test listed under Rattus norvegicus; in test [3]) were 1.1 and 1, respectively.

Molecule `NCCNC1CNCC1Cc1cccc(N)n1` (racemic) displayed a half-inhibitory concentration (IC50) against Nitric oxide synthase 1 [2] of 15.3 µM.

Take `Cc1cc(N)nc(CC2CNCC2OCCNCCc2cccc(F)c2)c1` (racemic): the IC50 was 0.7 µM on Nitric oxide synthase 1 [5] and 0.6 µM at Nitric oxide synthase 1 [2].

As for `Cc1cc(N)nc(CC2CNCC2NCCN)c1` (racemic), the IC50 at Nitric oxide synthase 1 [1] worked out at 1.3 µM; against Nitric oxide synthase 1 [2], 4 µM; at Nitric oxide synthase 1 [4], 3.4 µM. Also, the Ratio IC50 was 2.7 in the test listed under Rattus norvegicus and 3.1 in test [3].

`Cc1cc(N)nc(CC2CNCC2NCCNCCc2ccc(Cl)cc2)c1` (racemic): the values for the IC50 against Nitric oxide synthase 1 [1], against Nitric oxide synthase 1 [2] and at Nitric oxide synthase 1 [4] were 1.1 µM, 4.2 µM and 5 µM, respectively. Also, the figures for the Ratio IC50 (in the test filed under Rattus norvegicus; in test [3]) were 4.6 and 3.8, respectively.

With `Cc1cc(N)nc(CC2CNCC2NCCOCCc2cccc(F)c2)c1` (racemic), the results for the IC50 against Nitric oxide synthase 1 [1], on Nitric oxide synthase 1 [2] and against Nitric oxide synthase 1 [4] were 2.9 µM, 6.6 µM and 5.5 µM, respectively. Moreover, the Ratio IC50 in the test listed under Rattus norvegicus was found to be 1.9; in test [3], 2.4.
